According to patent US7589113B2, “Substituted oxadiazole compounds and their use as opioid receptor ligands” (Gruenenthal GmbH, priority 2005, dated 2009):

Experiments:
Serotonin reuptake = target: T1, Serotonin reuptake (Rattus norvegicus, UniProt P31652); assay: Serotonin (5HT) reuptake inhibition in rat brain synaptosomes; type: biochemical
T1 construct: synaptosomes are freshly isolated from rat brain regions; from tissue; host or cells: rat brain synaptosomes (P2 fraction)
Method: (§1) Noradrenalin (NA) and Serotonin (5HT) Reuptake Inhibition
(§2) In order to be able to carry out these in vitro studies, synaptosomes are freshly isolated from rat brain regions. A “P2” fraction is used, which is prepared according to the instructions given by Gray and Whittaker (E. G. Gray and V. P. Whittaker (1962) J. Anat. 76, 79-88). For NA uptake, these vesicular particles are isolated from the hypothalamus of male rat brains.
(§3) A detailed description of the method may be found in the literature (M. Ch. Frink, H.-H. Hennies, W. Engiberger, M. Haurand and B. Wilffert (1996) Arzneim.-Forsch./Drug Res. 46 (III), 11, 1029-1036).

Noradrenalin reuptake = target: T2, Noradrenalin reuptake (Rattus norvegicus, UniProt Q63380); assay: Noradrenalin (NA) reuptake inhibition in rat hypothalamus synaptosomes; type: biochemical
T2 construct: these vesicular particles are isolated from the hypothalamus of male rat brains; from tissue; host or cells: hypothalamus of male rat brains, synaptosomes (P2 fraction)
T2 sequence (Q63380 1-617): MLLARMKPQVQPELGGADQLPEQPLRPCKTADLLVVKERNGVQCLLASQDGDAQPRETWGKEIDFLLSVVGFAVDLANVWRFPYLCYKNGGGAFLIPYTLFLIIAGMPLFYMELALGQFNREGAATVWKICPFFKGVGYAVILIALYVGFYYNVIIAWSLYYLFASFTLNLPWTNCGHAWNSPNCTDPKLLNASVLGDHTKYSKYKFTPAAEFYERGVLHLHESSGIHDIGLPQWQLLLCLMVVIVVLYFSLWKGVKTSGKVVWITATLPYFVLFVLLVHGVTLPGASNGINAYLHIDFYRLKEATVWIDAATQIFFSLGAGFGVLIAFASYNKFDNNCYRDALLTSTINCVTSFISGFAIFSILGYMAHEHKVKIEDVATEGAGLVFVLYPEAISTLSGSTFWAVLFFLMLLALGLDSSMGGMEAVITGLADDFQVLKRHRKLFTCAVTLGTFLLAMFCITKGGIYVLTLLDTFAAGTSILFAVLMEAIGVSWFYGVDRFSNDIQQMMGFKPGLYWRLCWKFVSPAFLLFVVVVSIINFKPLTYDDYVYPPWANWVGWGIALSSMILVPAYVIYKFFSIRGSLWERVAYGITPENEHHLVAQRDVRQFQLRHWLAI
Method: as §1, §2, §3

human μ opiate receptor = target: T3, human μ opiate receptor (Homo sapiens, UniProt P35372); assay: Affinity for human μ opiate receptor ([3H]-naloxone displacement, SPA); type: binding; details: for inhibition at 1 µM / μ opioid receptor, % inhibition [1 μM]: 1 μM test substance, inhibition of specific [3H]-naloxone binding; for inhibition at 1 µM: read-out: μ opioid receptor, % inhibition [1 μM]; for Ki: Cheng-Prusoff conversion from IC50, read-out: μ opioid receptor, Ki
T3 construct: purchased PerkinElmer Life Sciences, Zaventem, Belgium RB-HOM; host or cells: CHO-K1 cells (membrane preparation)
T3 sequence (P35372 whole entry): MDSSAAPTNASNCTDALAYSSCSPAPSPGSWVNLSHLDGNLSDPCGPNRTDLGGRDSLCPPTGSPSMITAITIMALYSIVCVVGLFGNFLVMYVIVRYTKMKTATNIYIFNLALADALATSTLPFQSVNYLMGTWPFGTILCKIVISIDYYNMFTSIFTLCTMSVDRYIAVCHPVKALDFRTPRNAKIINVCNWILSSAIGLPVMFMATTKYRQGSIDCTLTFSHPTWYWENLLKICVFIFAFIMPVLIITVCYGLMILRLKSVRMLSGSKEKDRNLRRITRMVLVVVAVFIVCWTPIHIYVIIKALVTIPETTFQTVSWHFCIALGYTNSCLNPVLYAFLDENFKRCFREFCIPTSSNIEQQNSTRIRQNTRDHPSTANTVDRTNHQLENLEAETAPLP
Method: Method for Determining Affinity for Human μ Opiate Receptor
Receptor affinity for the human μ opiate receptor is determined in a homogeneous batch in microtitre plates. To this end, dilution series of the substances to be tested are incubated in a total volume of 250 μl for 90 minutes at room temperature with a receptor membrane preparation (15-40 μg protein/250 μl incubation batch) of CHO-K1 cells which express the human μ-opiate receptor (RB-HOM receptor membrane preparation from PerkinElmer Life Sciences, Zaventem, Belgium) in the presence of 1 nmol/l of the radioactive ligand [^3H]-naloxone (NET719, from PerkinElmer Life Sciences, Zaventem, Belgium) and 1 mg of WGA-SPA beads (wheat germ agglutinin SPA beads from Amersham/Pharmacia, Freiburg, Germany). 50 mmol/l of tris HCl supplemented with 0.06% bovine serum albumin is used as the incubation buffer. Nonspecific binding is determined by additionally adding 100 μmol/l of naloxone. Once the ninety minute incubation time has elapsed, the microtitre plates are centrifuged off for 20 minutes at 1000 g and the radioactivity measured in a β counter (Microbeta-Trilux, from PerkinElmer Wallac, Freiburg, Germany). The percentage displacement of the radioactive ligand from its binding to the human μ opiate receptor is determined at a concentration of the test substances of 1 μmol/l and stated as percentage inhibition of specific binding. On the basis of the percentage displacement brought about by different concentrations of the test substances, IC50 inhibition concentrations which result in a 50% displacement of the radioactive ligand are calculated. Ki values for the test substances are obtained by conversion using the Cheng-Prusoff equation.

T1 sequence (P31652 whole entry): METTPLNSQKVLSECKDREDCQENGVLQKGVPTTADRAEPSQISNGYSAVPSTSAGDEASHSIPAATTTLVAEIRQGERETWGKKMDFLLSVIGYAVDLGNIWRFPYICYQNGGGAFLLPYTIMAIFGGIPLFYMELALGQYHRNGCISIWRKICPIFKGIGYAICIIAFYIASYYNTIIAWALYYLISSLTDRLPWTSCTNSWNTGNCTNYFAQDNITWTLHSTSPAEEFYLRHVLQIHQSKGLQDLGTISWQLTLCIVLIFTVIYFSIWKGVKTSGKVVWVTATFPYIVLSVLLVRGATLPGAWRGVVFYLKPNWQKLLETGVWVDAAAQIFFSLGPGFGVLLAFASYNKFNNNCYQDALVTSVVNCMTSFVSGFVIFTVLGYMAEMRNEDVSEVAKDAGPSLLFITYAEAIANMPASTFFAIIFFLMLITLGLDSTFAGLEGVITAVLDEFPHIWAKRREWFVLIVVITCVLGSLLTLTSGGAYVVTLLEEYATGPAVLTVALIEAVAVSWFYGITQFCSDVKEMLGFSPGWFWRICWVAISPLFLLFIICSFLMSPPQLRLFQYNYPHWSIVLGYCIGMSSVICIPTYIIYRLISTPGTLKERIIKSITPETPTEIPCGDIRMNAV

Compound	inhibition at 1 µM (human μ opiate receptor)	other results
CN(C)C(c1ccccc1)C1CCC(Cc2nc(Cc3ccc(Cl)cc3)no2)CC1 (stereo not drawn) [Example 43, (4-((3-(4-chlorobenzyl)-1,2,4-oxadiazol-5-yl)methyl)cyclohexyl)-N,N-dimethyl(phenyl)methanamine]	83%	inhibition at 10 µM (Serotonin reuptake): 95%; inhibition at 10 µM (Noradrenalin reuptake): 95%; Ki (human μ opiate receptor): 44 nM
COc1ccc(Cc2noc(CC3CCC(C(c4ccccc4)N(C)C)CC3)n2)cc1 (stereo not drawn) [Example 44, (4-((3-(4-methoxybenzyl)-1,2,4-oxadiazol-5-yl)methyl)cyclohexyl)-N,N-dimethyl(phenyl)methanamine]	–	inhibition at 10 µM (Serotonin reuptake): 99%; inhibition at 10 µM (Noradrenalin reuptake): 100%; μ opioid receptor, % inhibition [1 μM] (human μ opiate receptor): 75%; Ki (human μ opiate receptor): 72 nM
CN(C)C(c1ccc(F)cc1)C1CCC(=Cc2nc(-c3cccc(Cl)c3Cl)no2)CC1 (stereo not drawn) [Example 55, [{4-[3-(2,3-dichlorophenyl)-[1,2,4]oxadiazol-5-ylmethylene]-cyclohexyl}-(4-fluorophenyl)-methyl]-dimethylamine]	53%	–
CN(C)C(c1ccccc1)C1CCC(=Cc2nc(-c3ccccc3)no2)CC1 (stereo not drawn) [Example 69, dimethyl-{phenyl-[4-(3-phenyl-[1,2,4]oxadiazol-5-ylmethylene)-cyclohexyl]-methyl}-amine]	40%	–
COc1ccc(Cc2noc(C=C3CCC(C(c4ccccc4)N(C)C)CC3)n2)cc1 (stereo not drawn) [Example 79, ({4-[3-(4-methoxybenzyl)-[1,2,4]oxadiazol-5-ylmethylene]-cyclohexyl}-phenylmethyl)-dimethylamine]	43%	–
Cc1cccc(-c2noc(C=C3CCC(C(c4ccccc4)N(C)C)CC3)n2)c1 (stereo not drawn) [Example 135, dimethyl-{phenyl-[4-(3-m-tolyl-[1,2,4]oxadiazol-5-ylmethylene)-cyclohexyl]-methyl}-amine]	44%	–
CN(C)C(c1ccccc1)C1CCC(C=Cc2nc(Cc3ccc(Cl)cc3)no2)CC1 (stereo not drawn) [Example 149, [(4-{2-[3-(4-chlorobenzyl)-[1,2,4]oxadiazol-5-yl]-vinyl}-cyclohexyl)-phenylmethyl]-dimethylamine]	42%	–
CN(C)C(c1ccccc1)C1CCC(C=Cc2nc(Cc3ccc(Cl)cc3)no2)CC1 (stereo not drawn) [Example 150, [(4-{2-[3-(4-chlorobenzyl)-[1,2,4]oxadiazol-5-yl]-vinyl}-cyclohexyl)-phenylmethyl]-dimethylamine]	–	μ opioid receptor, % inhibition [1 μM] (human μ opiate receptor): 56%
CN(C)C(c1cccs1)C1CCC(C=Cc2nc(Cc3ccc(Cl)cc3)no2)CC1 (stereo not drawn) [Example 155, [(4-{2-[3-(4-chlorobenzyl)-[1,2,4]oxadiazol-5-yl]-vinyl}-cyclohexyl)-thiophen-2-yl-methyl]-dimethylamine]	52%	–
Cc1cccc(-c2noc(C=CC3CCC(C(c4ccccc4)N(C)C)CC3)n2)c1 (stereo not drawn) [Example 183, dimethyl-(phenyl-{4-[2-(3-m-tolyl-[1,2,4]oxadiazol-5-yl)-vinyl]-cyclohexyl}-methyl)-amine]	40%	–
Cc1cccc(-c2noc(C=CC3CCC(C(c4cccs4)N(C)C)CC3)n2)c1 (stereo not drawn) [Example 195, dimethyl-(thiophen-2-yl-{4-[2-(3-m-tolyl-[1,2,4]oxadiazol-5-yl)-vinyl]-cyclohexyl}-methyl)-amine]	48%	–
Cc1ccc(-c2noc(C=CC3CCC(C(c4cccs4)N(C)C)CC3)n2)n1C (stereo not drawn) [Example 224, [(4-{2-[3-(1,5-dimethyl-1H-pyrrol-2-yl)-[1,2,4]oxadiazol-5-yl]-vinyl}-cyclohexyl)-thiophen-2-yl-methyl]-dimethylamine]	54%	–
CN(C)C(c1cccc(F)c1)C1CCC(Cc2nc(-c3ccccc3)no2)CC1 (stereo not drawn) [Example 232, {(3-fluorophenyl)-[4-(3-phenyl-[1,2,4]oxadiazol-5-ylmethyl)-cyclohexyl]-methyl}-dimethylamine]	41%	–
CN(C)C(c1ccccc1)C1CCC(Cc2nc(-c3ccccc3)no2)CC1 (stereo not drawn) [Example 234, dimethyl-{phenyl-[4-(3-phenyl-[1,2,4]oxadiazol-5-ylmethyl)-cyclohexyl]-methyl}-amine]	64%	–
COc1ccc(Cc2noc(CC3CCC(C(c4ccccc4)N(C)C)CC3)n2)cc1 (stereo not drawn) [Example 239, ({4-[3-(4-methoxybenzyl)-[1,2,4]oxadiazol-5-ylmethyl]-cyclohexyl}-phenylmethyl)-dimethylamine]	66%	–
CN(C)C(c1ccccc1)C1CCC(Cc2nc(-c3cccc(Cl)c3)no2)CC1 (stereo not drawn) [Example 243, ({4-[3-(3-chlorophenyl)-[1,2,4]oxadiazol-5-ylmethyl]-cyclohexyl}-phenylmethyl)-dimethylamine]	55%	Ki (human μ opiate receptor): 320 nM
CN(C)C(c1ccccc1)C1CCC(Cc2nc(-c3cccc(Cl)c3Cl)no2)CC1 (stereo not drawn) [Example 246, ({4-[3-(2,3-dichlorophenyl)-[1,2,4]oxadiazol-5-ylmethyl]-cyclohexyl}-phenylmethyl)-dimethylamine]	56%	–
Cc1cccc(-c2noc(CC3CCC(C(c4ccccc4)N(C)C)CC3)n2)c1 (stereo not drawn) [Example 258, dimethyl-{phenyl-[4-(3-m-tolyl-[1,2,4]oxadiazol-5-ylmethyl)-cyclohexyl]-methyl}-amine]	53%	–
COc1ccc(Cc2noc(CCC3CCC(C(c4ccccc4)N(C)C)CC3)n2)cc1 (stereo not drawn) [Example 269, [(4-{2-[3-(4-methoxybenzyl)-[1,2,4]oxadiazol-5-yl]-ethyl}-cyclohexyl)-phenylmethyl]-dimethylamine]	43%	–
CN(C)C(c1ccccc1)C1CCC(CCc2nc(Cc3ccc(Cl)cc3)no2)CC1 (stereo not drawn) [Example 273, [(4-{2-[3-(4-chlorobenzyl)-[1,2,4]oxadiazol-5-yl]-ethyl}-cyclohexyl)-phenylmethyl]-dimethylamine]	68%	–
CN(C)C(c1ccccc1)C1CCC(CCc2nc(-c3ccc(F)cc3F)no2)CC1 (stereo not drawn) [Example 281, [(4-{2-[3-(2,4-difluorophenyl)-[1,2,4]oxadiazol-5-yl]-ethyl}-cyclohexyl)-phenylmethyl]-dimethylamine]	69%	–
Cc1cccc(-c2noc(CCC3CCC(C(c4ccccc4)N(C)C)CC3)n2)c1 (stereo not drawn) [Example 296, dimethyl-(phenyl-{4-[2-(3-m-tolyl-[1,2,4]oxadiazol-5-yl)-ethyl]-cyclohexyl}-methyl)-amine]	45%	–
CN(C)C(c1ccccc1)C1CCC(CCc2nc(-c3cccc(Cl)c3Cl)no2)CC1 (stereo not drawn) [Example 304, [(4-{2-[3-(2,3-dichlorophenyl)-[1,2,4]oxadiazol-5-yl]-ethyl}-cyclohexyl)-phenylmethyl]-dimethylamine]	51%	–
